Experimental data as given in ChEMBL document CHEMBL1201862, “PubChem BioAssay data set” (2004).
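Cells were grown in 96-well plates and exposed to each compound for 48 hours at five concentrations; endpoints were interpolated linearly between bracketing concentrations, or set to the highest concentration if not reached. Abbreviation: GI50, concentration required for 50% inhibition of growth.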 Calls of active or inactive are those of the source. No stated cut-off is given here; in the data, active = GI50 up to about 1.1 µM and inactive = higher.

What was measured:
Assay in all cases: NCI tumour cell line growth inhibition, 48 h
MDA-N = system: MDA-N
NCI-H23 = system: NCI-H23
UACC-62 = system: UACC-62
UO-31 = system: UO-31
DU-145 = system: DU-145
HCC 2998 = system: HCC 2998
SK-OV-3 = system: SK-OV-3
OVCAR-3 = system: OVCAR-3
K562 = system: K562
SNB-19 = system: SNB-19
HT-29 = system: HT-29
BT-549 = system: BT-549
HOP-92 = system: HOP-92
A549 = system: A549
OVCAR-5 = system: OVCAR-5
HL-60 = system: HL-60
NCI-H460 = system: NCI-H460
SW-620 = system: SW-620
MDA-MB-435 = system: MDA-MB-435
SF-539 = system: SF-539
COLO 205 = system: COLO 205
HCT-15 = system: HCT-15
M14 = system: M14
ACHN = system: ACHN
IGROV-1 = system: IGROV-1
PC-3 = system: PC-3
UACC-257 = system: UACC-257
TK-10 = system: TK-10
KM12 = system: KM12
RXF 393 = system: RXF 393
SK-MEL-5 = system: SK-MEL-5
T47D = system: T47D
Hs-578T = system: Hs-578T
SF-295 = system: SF-295
MDA-MB-231 = system: MDA-MB-231
LOX IMVI = system: LOX IMVI
NCI/ADR-RES = system: NCI/ADR-RES
OVCAR-8 = system: OVCAR-8
CCRF-CEM = system: CCRF-CEM
NCI-H522 = system: NCI-H522
EKVX = system: EKVX
HOP-62 = system: HOP-62
HCT-116 = system: HCT-116
CAKI-1 = system: CAKI-1
MCF7 = system: MCF7
U-251 = system: U-251
SN12C = system: SN12C
RPMI-8226 = system: RPMI-8226
OVCAR-4 = system: OVCAR-4
MOLT-4 = system: MOLT-4
A498 = system: A498
Malme-3M = system: Malme-3M
786-0 = system: 786-0
SF-268 = system: SF-268
NCI-H226 = system: NCI-H226
SK-MEL-2 = system: SK-MEL-2
SK-MEL-28 = system: SK-MEL-28
SNB-75 = system: SNB-75

In the case of `CSc1s[s+]c(SC)c1-c1ccccc1`, the GI50 (MDA-N) was 16.7 µM (inactive), the GI50 (NCI-H23) was 16.9 µM (inactive) and the GI50 (UACC-62) was 13.4 µM (inactive). For the same molecule, the GI50 (UO-31) was 18.4 µM (inactive), the GI50 (DU-145) was 70.1 µM (inactive) and the GI50 (HCC 2998) was 5.62 µM (inactive). For the same molecule, the GI50 (SK-OV-3) was 15.9 µM (inactive), the GI50 (OVCAR-3) was 15 µM (inactive) and the GI50 (K562) was 20.2 µM (inactive). The GI50 (SNB-19) was 16.6 µM (inactive), the GI50 (HT-29) was 17.5 µM (inactive) and the GI50 (BT-549) was 13.9 µM (inactive). For the same molecule, the GI50 (HOP-92) was 13.2 µM (inactive), the GI50 (A549) was 28.1 µM (inactive) and the GI50 (OVCAR-5) was 15.8 µM (inactive). For the same molecule, the GI50 (HL-60) was 28.9 µM (inactive), the GI50 (NCI-H460) was 29.7 µM (inactive) and the GI50 (SW-620) was 16.4 µM (inactive). The GI50 (MDA-MB-435) was 18.9 µM (inactive), the GI50 (SF-539) was 18.2 µM (inactive) and the GI50 (COLO 205) was 18.4 µM (inactive). The GI50 (HCT-15) was 16.4 µM, the GI50 (M14) was 16.5 µM (inactive) and the GI50 (ACHN) was 16.3 µM (inactive). The GI50 (IGROV-1) was 17.6 µM (inactive), the GI50 (PC-3) was 21.7 µM (inactive) and the GI50 (UACC-257) was 14.4 µM (inactive). For the same molecule, the GI50 (TK-10) was 15.5 µM (inactive), the GI50 (KM12) was 16 µM (inactive) and the GI50 (RXF 393) was 16.3 µM (inactive). For the same molecule, the GI50 (SK-MEL-5) was 15.7 µM (inactive), the GI50 (T47D) was 32.6 µM (inactive) and the GI50 (Hs-578T) was 25.4 µM (inactive). The GI50 (SF-295) was 17.6 µM (inactive), the GI50 (MDA-MB-231) was 12.2 µM (inactive) and the GI50 (LOX IMVI) was 25.9 µM (inactive). For the same molecule, the GI50 (NCI/ADR-RES) was 18.7 µM (inactive), the GI50 (OVCAR-8) was 15.7 µM (inactive) and the GI50 (CCRF-CEM) was 25.2 µM (inactive). For the same molecule, the GI50 (NCI-H522) was 11.7 µM (inactive), the GI50 (EKVX) was 14.8 µM (inactive) and the GI50 (HOP-62) was 14.6 µM (inactive). For the same molecule, the GI50 (HCT-116) was 15.4 µM (inactive), the GI50 (CAKI-1) was 17.1 µM (inactive) and the GI50 (MCF7) was 17 µM (inactive). The GI50 (U-251) was 19.4 µM (inactive), the GI50 (SN12C) was 16.3 µM (inactive) and the GI50 (RPMI-8226) was 19.8 µM (inactive). For the same molecule, the GI50 (OVCAR-4) was 0.329 µM (active), the GI50 (MOLT-4) was 46.1 µM (inactive) and the GI50 (A498) was 19.8 µM (inactive). For the same molecule, the GI50 (Malme-3M) was 11.3 µM (inactive), the GI50 (786-0) was 14.1 µM (inactive) and the GI50 (SF-268) was 18.2 µM (inactive).
With `O=C(N/N=C(COc1cccc(Cl)c1)\N=C\c1cccnc1)c1ccncc1` the GI50 (MDA-N) was > 100 µM (inactive), the GI50 (NCI-H23) was > 100 µM (inactive) and the GI50 (UACC-62) was > 100 µM (inactive). The GI50 (DU-145) was > 100 µM (inactive), the GI50 (HCC 2998) was > 100 µM (inactive) and the GI50 (SK-OV-3) was > 100 µM (inactive). The GI50 (OVCAR-3) was > 100 µM (inactive), the GI50 (NCI-H226) was 93.5 µM (inactive) and the GI50 (K562) was > 100 µM (inactive). For the same molecule, the GI50 (SNB-19) was > 100 µM (inactive), the GI50 (HT-29) was > 100 µM (inactive) and the GI50 (BT-549) was > 100 µM (inactive). The GI50 (HOP-92) was 24.9 µM (inactive), the GI50 (A549) was > 100 µM (inactive) and the GI50 (OVCAR-5) was > 100 µM (inactive). The GI50 (HL-60) was > 100 µM (inactive), the GI50 (SK-MEL-2) was > 100 µM (inactive) and the GI50 (NCI-H460) was > 100 µM (inactive). The GI50 (SW-620) was > 100 µM (inactive), the GI50 (MDA-MB-435) was > 100 µM (inactive) and the GI50 (SF-539) was > 100 µM (inactive). For the same molecule, the GI50 (COLO 205) was 95.9 µM (inactive), the GI50 (HCT-15) was > 100 µM and the GI50 (M14) was > 100 µM (inactive). For the same molecule, the GI50 (ACHN) was 91.2 µM (inactive), the GI50 (IGROV-1) was > 100 µM (inactive) and the GI50 (PC-3) was > 100 µM (inactive). For the same molecule, the GI50 (UACC-257) was 90.4 µM (inactive), the GI50 (TK-10) was > 100 µM (inactive) and the GI50 (KM12) was > 100 µM (inactive). The GI50 (RXF 393) was 35.3 µM (inactive), the GI50 (T47D) was 32.5 µM (inactive) and the GI50 (Hs-578T) was 83.4 µM (inactive). For the same molecule, the GI50 (SF-295) was > 100 µM (inactive), the GI50 (MDA-MB-231) was > 100 µM (inactive) and the GI50 (LOX IMVI) was > 100 µM (inactive). For the same molecule, the GI50 (NCI/ADR-RES) was > 100 µM (inactive), the GI50 (OVCAR-8) was 89.3 µM (inactive) and the GI50 (CCRF-CEM) was > 100 µM (inactive). The GI50 (NCI-H522) was 63.7 µM (inactive), the GI50 (EKVX) was > 100 µM (inactive) and the GI50 (HOP-62) was > 100 µM (inactive). The GI50 (SK-MEL-28) was > 100 µM (inactive), the GI50 (HCT-116) was > 100 µM (inactive) and the GI50 (CAKI-1) was 73.5 µM (inactive). The GI50 (MCF7) was > 100 µM (inactive), the GI50 (U-251) was > 100 µM (inactive) and the GI50 (SN12C) was > 100 µM (inactive). The GI50 (RPMI-8226) was > 100 µM (inactive), the GI50 (OVCAR-4) was 84.7 µM (inactive) and the GI50 (SNB-75) was 18.5 µM (inactive). For the same molecule, the GI50 (MOLT-4) was > 100 µM (inactive), the GI50 (A498) was 40.6 µM (inactive) and the GI50 (Malme-3M) was > 100 µM (inactive). For the same molecule, the GI50 (786-0) was > 100 µM (inactive) and the GI50 (SF-268) was > 100 µM (inactive).
